Data published in PubChem BioAssay AID272 (DTP/NCI, 2004).
Values joined by “and” are separate entries in the source; they are usually repeats but may differ in a detail not shown here. Equal entries are not always repeated. Inconclusive results are not listed.

Test system: Lewis lung carcinoma i.m., BDF1 mice, T/C %
Test: NCI In Vivo Anticancer Drug Screen. Data for tumor model Lewis Lung Carcinoma (intramuscular) in B6D2F1 (BDF1) mice
Method in brief: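 Tumour-bearing mice were dosed with compound, and either their survival or their tumour size was measured. Results were expressed relative to vehicle-treated controls as T/C.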

CC(CN1CC(=O)NC(=O)C1)N1CC(=O)NC(=O)C1 (stereo unspecified)
T/C (endpoint: mean tumor weight, dose: 6.25 mg/kg/injection, schedule: Q01DX005 (ip), vehicle: Klucel (hydroxypropylcellulose) (HPC), higher = larger tumour): 61 % of control
T/C (endpoint: mean tumor weight, dose: 6.25 mg/kg/injection, schedule: Q01DX009 (ip), vehicle: Klucel (hydroxypropylcellulose) (HPC), higher = larger tumour): 49 % of control
T/C (endpoint: mean tumor weight, dose: 6.25 mg/kg/injection, schedule: Q01DX011 (ip), vehicle: Klucel (hydroxypropylcellulose) (HPC), higher = larger tumour): 73 % of control
T/C (endpoint: mean tumor weight, dose: 6.25 mg/kg/injection, schedule: Q01DX017 (ip), vehicle: Klucel (hydroxypropylcellulose) (HPC), higher = larger tumour): 57 % of control
T/C (endpoint: mean tumor weight, dose: 12.5 mg/kg/injection, schedule: Q01DX005 (ip), vehicle: Klucel (hydroxypropylcellulose) (HPC), higher = larger tumour): 62 % of control
T/C (endpoint: mean tumor weight, dose: 12.5 mg/kg/injection, schedule: Q01DX009 (ip), vehicle: Klucel (hydroxypropylcellulose) (HPC), higher = larger tumour): 59 % of control
T/C (endpoint: mean tumor weight, dose: 12.5 mg/kg/injection, schedule: Q01DX011 (ip), vehicle: Klucel (hydroxypropylcellulose) (HPC), higher = larger tumour): 52 % of control
T/C (endpoint: mean tumor weight, dose: 12.5 mg/kg/injection, schedule: Q01DX011 (ip), vehicle: steriod suspending solution, higher = larger tumour): 83 % of control and 85 % of control
T/C (endpoint: mean tumor weight, dose: 12.5 mg/kg/injection, schedule: Q01DX017 (ip), vehicle: Klucel (hydroxypropylcellulose) (HPC), higher = larger tumour): 49 % of control
T/C (endpoint: mean tumor weight, dose: 25.0 mg/kg/injection, schedule: Q01DX005 (ip), vehicle: Klucel (hydroxypropylcellulose) (HPC), higher = larger tumour): 50 % of control
T/C (endpoint: mean tumor weight, dose: 25.0 mg/kg/injection, schedule: Q01DX009 (ip), vehicle: Klucel (hydroxypropylcellulose) (HPC), higher = larger tumour): 26 % of control
T/C (endpoint: mean tumor weight, dose: 25.0 mg/kg/injection, schedule: Q01DX011 (ip), vehicle: Klucel (hydroxypropylcellulose) (HPC), higher = larger tumour): 39 % of control
T/C (endpoint: mean tumor weight, dose: 25.0 mg/kg/injection, schedule: Q01DX017 (ip), vehicle: Klucel (hydroxypropylcellulose) (HPC), higher = larger tumour): 44 % of control
T/C (endpoint: mean tumor weight, dose: 25.0 mg/kg/injection, schedule: Q04DX003 (ip), vehicle: Klucel (hydroxypropylcellulose) (HPC), higher = larger tumour): 99 % of control
T/C (endpoint: mean tumor weight, dose: 25.0 mg/kg/injection, schedule: Q04DX005 (ip), vehicle: Klucel (hydroxypropylcellulose) (HPC), higher = larger tumour): 104 % of control
T/C (endpoint: mean tumor weight, dose: 50.0 mg/kg/injection, schedule: Q01DX005 (ip), vehicle: Klucel (hydroxypropylcellulose) (HPC), higher = larger tumour): 49 % of control
T/C (endpoint: mean tumor weight, dose: 50.0 mg/kg/injection, schedule: Q01DX009 (ip), vehicle: Klucel (hydroxypropylcellulose) (HPC), higher = larger tumour): 32 % of control
T/C (endpoint: mean tumor weight, dose: 50.0 mg/kg/injection, schedule: Q01DX011 (ip), vehicle: Klucel (hydroxypropylcellulose) (HPC), higher = larger tumour): 14 % of control
T/C (endpoint: mean tumor weight, dose: 50.0 mg/kg/injection, schedule: Q04DX003 (ip), vehicle: Klucel (hydroxypropylcellulose) (HPC), higher = larger tumour): 80 % of control
T/C (endpoint: mean tumor weight, dose: 50.0 mg/kg/injection, schedule: Q04DX005 (ip), vehicle: Klucel (hydroxypropylcellulose) (HPC), higher = larger tumour): 85 % of control
T/C (endpoint: mean tumor weight, dose: 100.0 mg/kg/injection, schedule: Q01DX005 (ip), vehicle: Klucel (hydroxypropylcellulose) (HPC), higher = larger tumour): 21 % of control
T/C (endpoint: mean tumor weight, dose: 100.0 mg/kg/injection, schedule: Q04DX003 (ip), vehicle: Klucel (hydroxypropylcellulose) (HPC), higher = larger tumour): 70 % of control and 80 % of control
T/C (endpoint: mean tumor weight, dose: 100.0 mg/kg/injection, schedule: Q04DX005 (ip), vehicle: Klucel (hydroxypropylcellulose) (HPC), higher = larger tumour): 78 % of control
T/C (endpoint: mean tumor weight, dose: 200.0 mg/kg/injection, schedule: Q04DX003 (ip), vehicle: Klucel (hydroxypropylcellulose) (HPC), higher = larger tumour): 50 % of control and 58 % of control
T/C (endpoint: mean tumor weight, dose: 200.0 mg/kg/injection, schedule: Q04DX005 (ip), vehicle: Klucel (hydroxypropylcellulose) (HPC), higher = larger tumour): 56 % of control
T/C (endpoint: mean tumor weight, dose: 400.0 mg/kg/injection, schedule: Q04DX003 (ip), vehicle: Klucel (hydroxypropylcellulose) (HPC), higher = larger tumour): 6 % of control
T/C (endpoint: mean tumor weight, dose: 400.0 mg/kg/injection, schedule: Q04DX005 (ip), vehicle: Klucel (hydroxypropylcellulose) (HPC), higher = larger tumour): 7 % of control
T/C (endpoint: median survival time, dose: 6.25 mg/kg/injection, schedule: Q01DX005 (ip), vehicle: Klucel (hydroxypropylcellulose) (HPC), higher = longer survival): 111 % of control
T/C (endpoint: median survival time, dose: 6.25 mg/kg/injection, schedule: Q01DX009 (ip), vehicle: Klucel (hydroxypropylcellulose) (HPC), higher = longer survival): 105 % of control
T/C (endpoint: median survival time, dose: 6.25 mg/kg/injection, schedule: Q01DX011 (ip), vehicle: Klucel (hydroxypropylcellulose) (HPC), higher = longer survival): 117 % of control
T/C (endpoint: median survival time, dose: 6.25 mg/kg/injection, schedule: Q01DX017 (ip), vehicle: Klucel (hydroxypropylcellulose) (HPC), higher = longer survival): 113 % of control
T/C (endpoint: median survival time, dose: 12.5 mg/kg/injection, schedule: Q01DX005 (ip), vehicle: Klucel (hydroxypropylcellulose) (HPC), higher = longer survival): 96 % of control
T/C (endpoint: median survival time, dose: 12.5 mg/kg/injection, schedule: Q01DX009 (ip), vehicle: Klucel (hydroxypropylcellulose) (HPC), higher = longer survival): 100 % of control
T/C (endpoint: median survival time, dose: 12.5 mg/kg/injection, schedule: Q01DX011 (ip), vehicle: Klucel (hydroxypropylcellulose) (HPC), higher = longer survival): 92 % of control
T/C (endpoint: median survival time, dose: 12.5 mg/kg/injection, schedule: Q01DX017 (ip), vehicle: Klucel (hydroxypropylcellulose) (HPC), higher = longer survival): 86 % of control
T/C (endpoint: median survival time, dose: 15.0 mg/kg/injection, schedule: Q01DX011 (ip), vehicle: carboxymethylcellulose (CMC), higher = longer survival): 100 % of control
T/C (endpoint: median survival time, dose: 25.0 mg/kg/injection, schedule: Q01DX005 (ip), vehicle: Klucel (hydroxypropylcellulose) (HPC), higher = longer survival): 94 % of control
T/C (endpoint: median survival time, dose: 25.0 mg/kg/injection, schedule: Q01DX009 (ip), vehicle: Klucel (hydroxypropylcellulose) (HPC), higher = longer survival): 111 % of control
T/C (endpoint: median survival time, dose: 25.0 mg/kg/injection, schedule: Q01DX011 (ip), vehicle: Klucel (hydroxypropylcellulose) (HPC), higher = longer survival): 98 % of control
T/C (endpoint: median survival time, dose: 25.0 mg/kg/injection, schedule: Q04DX003 (ip), vehicle: Klucel (hydroxypropylcellulose) (HPC), higher = longer survival): 98 % of control
T/C (endpoint: median survival time, dose: 25.0 mg/kg/injection, schedule: Q04DX005 (ip), vehicle: Klucel (hydroxypropylcellulose) (HPC), higher = longer survival): 103 % of control
T/C (endpoint: median survival time, dose: 30.0 mg/kg/injection, schedule: Q01DX011 (ip), vehicle: carboxymethylcellulose (CMC), higher = longer survival): 105 % of control
T/C (endpoint: median survival time, dose: 50.0 mg/kg/injection, schedule: Q01DX005 (ip), vehicle: Klucel (hydroxypropylcellulose) (HPC), higher = longer survival): 105 % of control
T/C (endpoint: median survival time, dose: 50.0 mg/kg/injection, schedule: Q01DX009 (ip), vehicle: Klucel (hydroxypropylcellulose) (HPC), higher = longer survival): 94 % of control
T/C (endpoint: median survival time, dose: 50.0 mg/kg/injection, schedule: Q01DX011 (ip), vehicle: Klucel (hydroxypropylcellulose) (HPC), higher = longer survival): 113 % of control
T/C (endpoint: median survival time, dose: 50.0 mg/kg/injection, schedule: Q04DX003 (ip), vehicle: Klucel (hydroxypropylcellulose) (HPC), higher = longer survival): 96 % of control
T/C (endpoint: median survival time, dose: 50.0 mg/kg/injection, schedule: Q04DX005 (ip), vehicle: Klucel (hydroxypropylcellulose) (HPC), higher = longer survival): 100 % of control
T/C (endpoint: median survival time, dose: 100.0 mg/kg/injection, schedule: Q01DX001 (ip), vehicle: other, higher = longer survival): 89 % of control
T/C (endpoint: median survival time, dose: 100.0 mg/kg/injection, schedule: Q01DX001 (ip), vehicle: steriod suspending solution, higher = longer survival): 93 % of control
T/C (endpoint: median survival time, dose: 100.0 mg/kg/injection, schedule: Q01DX005 (ip), vehicle: Klucel (hydroxypropylcellulose) (HPC), higher = longer survival): 119 % of control
T/C (endpoint: median survival time, dose: 100.0 mg/kg/injection, schedule: Q04DX003 (ip), vehicle: Klucel (hydroxypropylcellulose) (HPC), higher = longer survival): 90 % of control and 108 % of control (2×)
T/C (endpoint: median survival time, dose: 100.0 mg/kg/injection, schedule: Q04DX005 (ip), vehicle: Klucel (hydroxypropylcellulose) (HPC), higher = longer survival): 101 % of control
T/C (endpoint: median survival time, dose: 200.0 mg/kg/injection, schedule: Q01DX001 (ip), vehicle: other, higher = longer survival): 86 % of control
T/C (endpoint: median survival time, dose: 200.0 mg/kg/injection, schedule: Q01DX001 (ip), vehicle: steriod suspending solution, higher = longer survival): 93 % of control
T/C (endpoint: median survival time, dose: 200.0 mg/kg/injection, schedule: Q04DX003 (ip), vehicle: Klucel (hydroxypropylcellulose) (HPC), higher = longer survival): 111 % of control and 115 % of control and 117 % of control
T/C (endpoint: median survival time, dose: 200.0 mg/kg/injection, schedule: Q04DX005 (ip), vehicle: Klucel (hydroxypropylcellulose) (HPC), higher = longer survival): 115 % of control
T/C (endpoint: median survival time, dose: 400.0 mg/kg/injection, schedule: Q01DX001 (ip), vehicle: other, higher = longer survival): 76 % of control
T/C (endpoint: median survival time, dose: 400.0 mg/kg/injection, schedule: Q04DX003 (ip), vehicle: Klucel (hydroxypropylcellulose) (HPC), higher = longer survival): 123 % of control
T/C (endpoint: median survival time, dose: 800.0 mg/kg/injection, schedule: Q01DX001 (ip), vehicle: other, higher = longer survival): 78 % of control
T/C (endpoint: median survival time, dose: 800.0 mg/kg/injection, schedule: Q01DX001 (ip), vehicle: steriod suspending solution, higher = longer survival): 87 % of control
T/C (endpoint: median survival time, dose: 800.0 mg/kg/injection, schedule: Q04DX003 (ip), vehicle: Klucel (hydroxypropylcellulose) (HPC), higher = longer survival): 29 % of control

COC1C(O)C(O)OC(CO)C1O (stereo unspecified)
T/C (endpoint: mean tumor weight (est.), dose: 500.0 mg/kg/injection, schedule: Q01DX011 (ip), vehicle: saline, higher = larger tumour): 83 % of control
T/C (endpoint: mean tumor weight (est.), dose: 1000.0 mg/kg/injection, schedule: Q01DX011 (ip), vehicle: saline, higher = larger tumour): 77 % of control
T/C (endpoint: median survival time, dose: 500.0 mg/kg/injection, schedule: Q01DX011 (ip), vehicle: saline, higher = longer survival): 106 % of control
T/C (endpoint: median survival time, dose: 1000.0 mg/kg/injection, schedule: Q01DX011 (ip), vehicle: saline, higher = longer survival): 112 % of control

CC1=Nc2ccccc2/C1=C\c1c(C)[nH]c2ccccc12
T/C (endpoint: mean tumor weight (est.), dose: 25.0 mg/kg/injection, schedule: Q01DX011 (ip), vehicle: saline with Tween-80, higher = larger tumour): 52 % of control
T/C (endpoint: mean tumor weight (est.), dose: 50.0 mg/kg/injection, schedule: Q01DX011 (ip), vehicle: saline with Tween-80, higher = larger tumour): 68 % of control
T/C (endpoint: mean tumor weight (est.), dose: 100.0 mg/kg/injection, schedule: Q01DX011 (ip), vehicle: saline with Tween-80, higher = larger tumour): 29 % of control
T/C (endpoint: median survival time, dose: 25.0 mg/kg/injection, schedule: Q01DX011 (ip), vehicle: saline with Tween-80, higher = longer survival): 104 % of control
T/C (endpoint: median survival time, dose: 50.0 mg/kg/injection, schedule: Q01DX011 (ip), vehicle: saline with Tween-80, higher = longer survival): 93 % of control
T/C (endpoint: median survival time, dose: 100.0 mg/kg/injection, schedule: Q01DX011 (ip), vehicle: saline with Tween-80, higher = longer survival): 100 % of control
